Read-outs that look alike come from different tables or passages of the source.
How the values were obtained:
Format in all cases: binding
[1] = molecular target: T1, HeLa cell extract proteins (Homo sapiens, UniProt P52272)
T1 construct: endogenous in cells; host or cells: HeLa cell extract
T1 sequence (P52272 1-730): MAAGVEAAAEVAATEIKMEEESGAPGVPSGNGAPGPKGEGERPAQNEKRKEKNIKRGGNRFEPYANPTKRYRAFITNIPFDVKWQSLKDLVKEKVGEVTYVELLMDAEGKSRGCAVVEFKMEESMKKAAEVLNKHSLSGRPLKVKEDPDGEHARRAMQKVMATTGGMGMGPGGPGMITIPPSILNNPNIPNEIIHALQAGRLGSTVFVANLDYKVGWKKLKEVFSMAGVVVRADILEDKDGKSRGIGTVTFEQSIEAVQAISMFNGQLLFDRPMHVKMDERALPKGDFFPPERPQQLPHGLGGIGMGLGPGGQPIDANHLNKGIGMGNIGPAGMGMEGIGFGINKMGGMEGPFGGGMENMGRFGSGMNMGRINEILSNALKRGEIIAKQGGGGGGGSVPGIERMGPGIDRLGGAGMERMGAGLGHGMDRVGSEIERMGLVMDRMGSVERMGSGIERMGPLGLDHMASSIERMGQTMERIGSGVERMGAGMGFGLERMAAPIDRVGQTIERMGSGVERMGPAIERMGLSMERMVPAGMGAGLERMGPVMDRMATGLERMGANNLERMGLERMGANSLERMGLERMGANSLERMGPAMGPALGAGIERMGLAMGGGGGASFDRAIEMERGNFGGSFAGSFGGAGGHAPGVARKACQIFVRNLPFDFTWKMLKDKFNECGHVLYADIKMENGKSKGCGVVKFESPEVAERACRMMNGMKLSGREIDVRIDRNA

[2] = molecular target: T2, HeLa cell extract proteins (Homo sapiens, UniProt Q14566)
T2 construct: endogenous in cells; host or cells: HeLa cell extract
T2 sequence (Q14566 1-821): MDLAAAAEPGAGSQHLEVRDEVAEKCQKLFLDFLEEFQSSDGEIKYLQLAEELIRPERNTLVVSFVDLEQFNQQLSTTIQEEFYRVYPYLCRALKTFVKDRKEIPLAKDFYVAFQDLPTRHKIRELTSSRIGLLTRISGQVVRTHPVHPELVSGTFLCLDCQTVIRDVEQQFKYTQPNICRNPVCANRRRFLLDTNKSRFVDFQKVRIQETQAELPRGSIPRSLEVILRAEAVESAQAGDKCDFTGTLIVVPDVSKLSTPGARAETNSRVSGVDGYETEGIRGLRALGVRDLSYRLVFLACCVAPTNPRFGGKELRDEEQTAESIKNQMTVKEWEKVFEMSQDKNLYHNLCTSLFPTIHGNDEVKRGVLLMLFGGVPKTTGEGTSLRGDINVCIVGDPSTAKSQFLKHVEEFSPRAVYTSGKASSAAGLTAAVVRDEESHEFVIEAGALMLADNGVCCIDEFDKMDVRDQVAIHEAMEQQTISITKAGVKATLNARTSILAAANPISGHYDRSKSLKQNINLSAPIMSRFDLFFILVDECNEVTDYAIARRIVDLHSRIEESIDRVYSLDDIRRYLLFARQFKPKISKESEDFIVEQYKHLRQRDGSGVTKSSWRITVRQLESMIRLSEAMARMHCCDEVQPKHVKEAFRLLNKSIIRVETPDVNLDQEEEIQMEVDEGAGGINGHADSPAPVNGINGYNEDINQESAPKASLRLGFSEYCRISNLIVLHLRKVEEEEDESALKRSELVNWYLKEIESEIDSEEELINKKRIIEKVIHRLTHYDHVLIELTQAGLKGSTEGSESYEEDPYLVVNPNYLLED

[3] = molecular target: T3, HeLa cell extract proteins (Homo sapiens, UniProt P53396)
T3 construct: endogenous in cells; host or cells: HeLa cell extract
T3 sequence (P53396 1-1101): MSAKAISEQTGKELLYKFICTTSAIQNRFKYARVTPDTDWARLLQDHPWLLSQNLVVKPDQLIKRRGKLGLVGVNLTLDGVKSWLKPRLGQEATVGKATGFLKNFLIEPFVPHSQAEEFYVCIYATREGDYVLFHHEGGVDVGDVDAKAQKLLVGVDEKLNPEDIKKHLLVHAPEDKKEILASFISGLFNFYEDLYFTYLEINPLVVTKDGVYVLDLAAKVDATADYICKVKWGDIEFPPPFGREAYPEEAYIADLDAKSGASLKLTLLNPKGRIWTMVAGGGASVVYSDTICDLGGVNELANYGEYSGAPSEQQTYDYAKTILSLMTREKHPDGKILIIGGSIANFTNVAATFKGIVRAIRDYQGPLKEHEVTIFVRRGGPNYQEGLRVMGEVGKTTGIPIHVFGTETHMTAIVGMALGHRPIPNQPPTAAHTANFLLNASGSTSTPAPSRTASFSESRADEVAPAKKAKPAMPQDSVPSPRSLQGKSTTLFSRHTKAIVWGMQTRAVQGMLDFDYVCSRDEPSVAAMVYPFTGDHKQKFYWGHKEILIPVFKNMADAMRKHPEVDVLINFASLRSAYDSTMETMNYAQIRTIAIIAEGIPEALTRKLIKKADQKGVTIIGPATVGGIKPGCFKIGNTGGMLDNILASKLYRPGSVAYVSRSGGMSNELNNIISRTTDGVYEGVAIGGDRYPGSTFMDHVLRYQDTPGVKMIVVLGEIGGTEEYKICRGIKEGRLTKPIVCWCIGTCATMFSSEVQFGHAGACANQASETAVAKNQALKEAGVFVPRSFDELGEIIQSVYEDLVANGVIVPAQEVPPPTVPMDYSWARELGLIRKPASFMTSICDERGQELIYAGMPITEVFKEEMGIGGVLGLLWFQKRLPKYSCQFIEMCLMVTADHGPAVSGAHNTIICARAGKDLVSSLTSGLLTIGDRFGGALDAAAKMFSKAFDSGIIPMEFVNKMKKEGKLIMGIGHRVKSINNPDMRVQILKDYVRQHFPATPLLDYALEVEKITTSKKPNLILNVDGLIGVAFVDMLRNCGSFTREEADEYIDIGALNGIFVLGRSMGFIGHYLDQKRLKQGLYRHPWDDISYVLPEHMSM

Structure (SMILES) | fold changes relative to vehicle control ([1]; HeLa, protein HNRNPM) | fold changes relative to vehicle control ([2]; protein MCM6, HeLa) | fold changes relative to vehicle control ([3]; protein ACLY, HeLa) | fold changes relative to vehicle control ([1]; HeLa, captured protein HNRNPM) | fold changes relative to vehicle control ([2]; HeLa, protein MCM6) | fold changes relative to vehicle control ([3]; HeLa, protein ACLY) | also measured
Nc1nc2cccc(-c3ccccc3)c2n1Cc1ccc(Cl)c(Cl)c1 [compound 3] | 0.88 | 0.91 | 1.2 |  |  |  | 
Nc1nc2[nH]cc(CCc3ccc(C(=O)N[C@@H](CCC(=O)O)C(=O)O)cc3)c2c(=O)[nH]1 [PTX, pemetrexed] |  |  |  |  |  |  | fold changes relative to vehicle control [1]: 0.99; fold changes relative to vehicle control [2]: 1.05; fold changes relative to vehicle control [3]: 1.1
Nc1nc2c(c(=O)[nH]1)N(C=O)C(CNc1ccc(C(=O)N[C@@H](CCC(=O)O)C(=O)O)cc1)CN2 (stereo partly drawn) [LEU, leucovorin] |  |  |  | 0.83 | 1.28 | 1.04 | 
CCCCCCOc1cccc(Cc2cnc(N)nc2N)c1 [compound 2] | 1.21 | 2.32 | 1.99 |  |  |  | 
NCCOCCOCC(=O)Nc1nc2ncc(CNc3ccc(C(=O)NC(CCC(=O)O)C(=O)O)cc3)nc2c(=O)[nH]1 (stereo not drawn) [compound 6] |  |  |  | 1.01 | 1.3 | 1.19 | 
CCCCCCOc1ccc(Cc2cnc(N)nc2N)cc1 [compound 1] | 1.09 | 1.15 | 1.25 |  |  |  | 
NCCCNc1ccc(C(=O)NC(CCC(=O)O)C(=O)O)cc1 (stereo not drawn) [compound 7] |  |  |  | 1.02 | 1.06 | 1.04 | 

Reference: article PMC6199744, “Development of Chemical Proteomics for the Folateome and Analysis of the Kinetoplastid Folateome” (ACS Infectious Diseases, 2018)
